In PubChem BioAssay (NCI):
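Step 1: Grow cells in 96-well plates. Step 2: Expose to compound for 48 hours at 5 concentrations. Step 3: Interpolate endpoints linearly; if unreached, use highest concentration. The concentration for 50% growth inhibition is given as GI50. TGI: concentration producing complete growth inhibition.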

Assays:
Test in all cases: inhibition of tumour cell growth, NCI panel, 48 h
NCI/ADR-RES ovarian = test system: NCI/ADR-RES ovarian
M14 melanoma = test system: M14 melanoma
RXF 393 renal = test system: RXF 393 renal
HOP-62 NSCLC = test system: HOP-62 NSCLC
SK-MEL-2 melanoma = test system: SK-MEL-2 melanoma
SW-620 colon = test system: SW-620 colon
HCC-2998 colon = test system: HCC-2998 colon
A498 renal = test system: A498 renal
DU-145 prostate = test system: DU-145 prostate
MDA-MB-435 = test system: MDA-MB-435
RPMI-8226 leukemia = test system: RPMI-8226 leukemia
T-47D breast = test system: T-47D breast
K-562 leukemia = test system: K-562 leukemia
MOLT-4 leukemia = test system: MOLT-4 leukemia
SK-OV-3 ovarian = test system: SK-OV-3 ovarian
NCI-H460 lung = test system: NCI-H460 lung
SF-295 CNS = test system: SF-295 CNS
HCT-15 colon = test system: HCT-15 colon
SNB-75 CNS = test system: SNB-75 CNS
UO-31 renal = test system: UO-31 renal
MDA-MB-231 breast = test system: MDA-MB-231 breast
MALME-3M melanoma = test system: MALME-3M melanoma
HL-60(TB) leukemia = test system: HL-60(TB) leukemia
ACHN renal = test system: ACHN renal
SK-MEL-28 melanoma = test system: SK-MEL-28 melanoma
COLO 205 colon = test system: COLO 205 colon
CAKI-1 renal = test system: CAKI-1 renal
NCI-H23 lung = test system: NCI-H23 lung
TK-10 renal = test system: TK-10 renal
HT29 colon = test system: HT29 colon
HOP-92 NSCLC = test system: HOP-92 NSCLC
NCI-H226 lung = test system: NCI-H226 lung
UACC-62 melanoma = test system: UACC-62 melanoma
BT-549 breast = test system: BT-549 breast
SF-539 CNS = test system: SF-539 CNS
U251 CNS = test system: U251 CNS
OVCAR-5 ovarian = test system: OVCAR-5 ovarian
HCT-116 colon = test system: HCT-116 colon
OVCAR-3 ovarian = test system: OVCAR-3 ovarian
IGROV1 ovarian = test system: IGROV1 ovarian
NCI-H522 lung = test system: NCI-H522 lung
HS 578T breast = test system: HS 578T breast
CCRF-CEM leukemia = test system: CCRF-CEM leukemia
KM12 colon = test system: KM12 colon
786-0 renal = test system: 786-0 renal
SF-268 CNS = test system: SF-268 CNS
UACC-257 melanoma = test system: UACC-257 melanoma
OVCAR-8 ovarian = test system: OVCAR-8 ovarian
A549 NSCLC = test system: A549 NSCLC
OVCAR-4 ovarian = test system: OVCAR-4 ovarian
SNB-19 CNS = test system: SNB-19 CNS
LOX IMVI melanoma = test system: LOX IMVI melanoma
MCF7 breast = test system: MCF7 breast
SN12C renal = test system: SN12C renal
PC-3 prostate = test system: PC-3 prostate
SR leukemia = test system: SR leukemia
SK-MEL-5 melanoma = test system: SK-MEL-5 melanoma

`COc1cc(C2CC(=O)Nc3c2ccc2ccccc32)cc(Br)c1OC` (configuration not stated) showed a GI50 (NCI/ADR-RES ovarian) of 279 nM, a TGI (NCI/ADR-RES ovarian) of 1130 nM and a GI50 (M14 melanoma) of 308 nM. It also gave a TGI (M14 melanoma) of 2700 nM, a GI50 (RXF 393 renal) of 780 nM and a TGI (RXF 393 renal) of 7050 nM. For the same molecule, the GI50 (HOP-62 NSCLC) was 753 nM, the TGI (HOP-62 NSCLC) was > 100000 nM and the GI50 (SK-MEL-2 melanoma) was 695 nM. For the same molecule, the TGI (SK-MEL-2 melanoma) was > 100000 nM, the GI50 (SW-620 colon) was 359 nM and the TGI (SW-620 colon) was > 100000 nM. For the same molecule, the GI50 (HCC-2998 colon) was 840 nM, the TGI (HCC-2998 colon) was > 29900 nM and the GI50 (A498 renal) was 272 nM. For the same molecule, the TGI (A498 renal) was 2290 nM, the GI50 (DU-145 prostate) was 653 nM and the TGI (DU-145 prostate) was > 38200 nM. It also gave a GI50 (MDA-MB-435) of 138 nM, a TGI (MDA-MB-435) of 464 nM and a GI50 (RPMI-8226 leukemia) of 562 nM. For the same molecule, the TGI (RPMI-8226 leukemia) was 24100 nM, the GI50 (T-47D breast) was 811 nM and the TGI (T-47D breast) was > 100000 nM. The GI50 (K-562 leukemia) was 349 nM, the TGI (K-562 leukemia) was > 75700 nM and the GI50 (MOLT-4 leukemia) was 450 nM. The TGI (MOLT-4 leukemia) was 12400 nM, the GI50 (SK-OV-3 ovarian) was 507 nM and the TGI (SK-OV-3 ovarian) was > 22700 nM. For the same molecule, the GI50 (NCI-H460 lung) was 368 nM, the TGI (NCI-H460 lung) was > 20200 nM and the GI50 (SF-295 CNS) was 316 nM. The GI50 (HCT-15 colon) was 445 nM, the TGI (HCT-15 colon) was > 90500 nM and the GI50 (SNB-75 CNS) was 224 nM. For the same molecule, the TGI (SNB-75 CNS) was 2430 nM, the GI50 (UO-31 renal) was 2240 nM and the TGI (UO-31 renal) was > 34500 nM. The GI50 (MDA-MB-231 breast) was 2830 nM, the TGI (MDA-MB-231 breast) was > 46700 nM and the GI50 (MALME-3M melanoma) was 582 nM. The TGI (MALME-3M melanoma) was > 70600 nM, the GI50 (HL-60(TB) leukemia) was 212 nM and the TGI (HL-60(TB) leukemia) was 462 nM. The GI50 (ACHN renal) was 798 nM, the TGI (ACHN renal) was > 100000 nM and the GI50 (SK-MEL-28 melanoma) was 805 nM. For the same molecule, the TGI (SK-MEL-28 melanoma) was > 100000 nM, the GI50 (COLO 205 colon) was 369 nM and the TGI (COLO 205 colon) was 1350 nM. The GI50 (CAKI-1 renal) was 375 nM, the TGI (CAKI-1 renal) was > 100000 nM and the GI50 (NCI-H23 lung) was 565 nM. The TGI (NCI-H23 lung) was > 100000 nM, the GI50 (TK-10 renal) was 13400 nM and the TGI (TK-10 renal) was > 100000 nM. For the same molecule, the GI50 (HT29 colon) was 370 nM, the TGI (HT29 colon) was 18200 nM and the GI50 (HOP-92 NSCLC) was 176 nM. The TGI (HOP-92 NSCLC) was 2420 nM, the GI50 (NCI-H226 lung) was 6400 nM and the TGI (NCI-H226 lung) was > 100000 nM. The GI50 (UACC-62 melanoma) was 540 nM, the GI50 (BT-549 breast) was 384 nM and the TGI (BT-549 breast) was 17500 nM. The GI50 (SF-539 CNS) was 583 nM, the TGI (SF-539 CNS) was 15100 nM and the GI50 (U251 CNS) was 433 nM. For the same molecule, the TGI (U251 CNS) was > 37900 nM, the GI50 (OVCAR-5 ovarian) was 2010 nM and the TGI (OVCAR-5 ovarian) was > 79300 nM. The GI50 (HCT-116 colon) was 373 nM, the TGI (HCT-116 colon) was > 34700 nM and the GI50 (OVCAR-3 ovarian) was 309 nM. For the same molecule, the TGI (OVCAR-3 ovarian) was 809 nM, the GI50 (IGROV1 ovarian) was 860 nM and the TGI (IGROV1 ovarian) was > 42300 nM. For the same molecule, the GI50 (NCI-H522 lung) was 410 nM, the TGI (NCI-H522 lung) was 8420 nM and the GI50 (HS 578T breast) was 376 nM. The TGI (HS 578T breast) was > 23200 nM, the GI50 (CCRF-CEM leukemia) was 292 nM and the TGI (CCRF-CEM leukemia) was 1410 nM. For the same molecule, the GI50 (KM12 colon) was 532 nM, the TGI (KM12 colon) was > 41200 nM and the GI50 (786-0 renal) was 569 nM. The TGI (786-0 renal) was > 39300 nM, the GI50 (SF-268 CNS) was 933 nM and the TGI (SF-268 CNS) was > 100000 nM. The GI50 (UACC-257 melanoma) was 504 nM, the TGI (UACC-257 melanoma) was 68100 nM and the GI50 (OVCAR-8 ovarian) was 772 nM. The TGI (OVCAR-8 ovarian) was > 51100 nM, the GI50 (A549 NSCLC) was 549 nM and the TGI (A549 NSCLC) was > 49700 nM. For the same molecule, the GI50 (OVCAR-4 ovarian) was 3640 nM, the TGI (OVCAR-4 ovarian) was > 100000 nM and the GI50 (SNB-19 CNS) was 11700 nM. The TGI (SNB-19 CNS) was > 100000 nM, the GI50 (LOX IMVI melanoma) was 452 nM and the TGI (LOX IMVI melanoma) was > 33500 nM. For the same molecule, the GI50 (MCF7 breast) was 343 nM, the TGI (MCF7 breast) was > 40600 nM and the GI50 (SN12C renal) was 1360 nM. The TGI (SN12C renal) was > 43600 nM, the GI50 (PC-3 prostate) was 490 nM and the TGI (PC-3 prostate) was > 100000 nM. The GI50 (SR leukemia) was 350 nM, the TGI (SR leukemia) was 16700 nM and the GI50 (SK-MEL-5 melanoma) was 414 nM. It also gave a TGI (SK-MEL-5 melanoma) of 9930 nM.
